Test: xn = mol fraction of the nth substance listed
Details: Fluid (supercritical or subcritical phases), Spherical resonator

N#N [nitrogen] + C
Details | speed of sound [m/s]
300 K, 17969 kPa, x1 = 0.2 | 476.54
300 K, 18326 kPa, x1 = 0.1 | 491.78
300 K, 19736 kPa, x1 = 0.2 | 492.16
300 K, 19924 kPa, x1 = 0.1 | 507.75
300 K, 24934 kPa, x1 = 0.1 | 563.32
300 K, 30250 kPa, x1 = 0.1 | 625.49
350 K, 202.3 kPa, x1 = 0.1 | 466.26
350 K, 248.7 kPa, x1 = 0.2 | 452.58
350 K, 498.6 kPa, x1 = 0.2 | 452.54
350 K, 502 kPa, x1 = 0.1 | 466.1
350 K, 552.3 kPa, x1 = 0.5422 | 415.67
350 K, 814.8 kPa, x1 = 0.5422 | 415.97
350 K, 1001 kPa, x1 = 0.1 | 465.83
350 K, 1374 kPa, x1 = 0.5422 | 416.67
350 K, 1999 kPa, x1 = 0.2 | 452.66
350 K, 2001 kPa, x1 = 0.1 | 465.52
350 K, 2717 kPa, x1 = 0.5422 | 418.62
350 K, 3007 kPa, x1 = 0.1 | 465.52
350 K, 4009 kPa, x1 = 0.2 | 453.86
350 K, 4012 kPa, x1 = 0.1 | 465.86
350 K, 5419 kPa, x1 = 0.5422 | 423.85
350 K, 6023 kPa, x1 = 0.1 | 467.64
350 K, 6042 kPa, x1 = 0.2 | 456.41
350 K, 8048 kPa, x1 = 0.1 | 471.02
350 K, 8070 kPa, x1 = 0.5422 | 430.68
350 K, 8140 kPa, x1 = 0.2 | 460.55
350 K, 9931 kPa, x1 = 0.2 | 465.36
350 K, 10069 kPa, x1 = 0.1 | 476.07
350 K, 10144 kPa, x1 = 0.2 | 466.02
350 K, 12122 kPa, x1 = 0.1 | 482.98
350 K, 12140 kPa, x1 = 0.2 | 472.93
350 K, 13507 kPa, x1 = 0.5422 | 449.48
350 K, 14143 kPa, x1 = 0.1 | 491.53
350 K, 14157 kPa, x1 = 0.2 | 481.39
350 K, 16162 kPa, x1 = 0.2 | 491.18
350 K, 16179 kPa, x1 = 0.1 | 501.83
350 K, 17867 kPa, x1 = 0.2 | 500.53
350 K, 18210 kPa, x1 = 0.1 | 513.66
350 K, 19448 kPa, x1 = 0.2 | 509.95
350 K, 19809 kPa, x1 = 0.1 | 523.96
400 K, 199.4 kPa, x1 = 0.1 | 494.39
400 K, 231.4 kPa, x1 = 0.2 | 480.07
400 K, 497.1 kPa, x1 = 0.1 | 494.48
400 K, 501.8 kPa, x1 = 0.2 | 480.26
400 K, 622 kPa, x1 = 0.5422 | 442.06
400 K, 918.4 kPa, x1 = 0.5422 | 442.56
400 K, 995.6 kPa, x1 = 0.1 | 494.7
400 K, 1551 kPa, x1 = 0.5422 | 443.69
400 K, 1990 kPa, x1 = 0.1 | 495.31
400 K, 2005 kPa, x1 = 0.2 | 481.61
400 K, 2989 kPa, x1 = 0.1 | 496.16
400 K, 3075 kPa, x1 = 0.5422 | 446.66
400 K, 3994 kPa, x1 = 0.1 | 497.25
400 K, 4015 kPa, x1 = 0.2 | 484.18
400 K, 6011 kPa, x1 = 0.1 | 500.22
400 K, 6027 kPa, x1 = 0.2 | 487.68
400 K, 6170 kPa, x1 = 0.5422 | 453.88
400 K, 8012 kPa, x1 = 0.1 | 504.2
400 K, 8046 kPa, x1 = 0.2 | 492.14
400 K, 9240 kPa, x1 = 0.5422 | 462.55
400 K, 10023 kPa, x1 = 0.1 | 509.28
400 K, 10077 kPa, x1 = 0.2 | 497.61
400 K, 12004 kPa, x1 = 0.2 | 503.66
400 K, 12054 kPa, x1 = 0.1 | 515.5
400 K, 14084 kPa, x1 = 0.1 | 522.78
400 K, 14562 kPa, x1 = 0.2 | 513.02
400 K, 15633 kPa, x1 = 0.5422 | 484.69
400 K, 16027 kPa, x1 = 0.2 | 519
400 K, 16081 kPa, x1 = 0.1 | 530.96
400 K, 16082 kPa, x1 = 0.1 | 530.96
400 K, 18039 kPa, x1 = 0.2 | 527.93
400 K, 18052 kPa, x1 = 0.1 | 539.93
400 K, 19788 kPa, x1 = 0.1 | 548.54
400 K, 20114 kPa, x1 = 0.2 | 537.94

— the NIST ThermoML archive (doi:10.1016/j.jct.2005.10.006)
